# Laboratory results published in ChEMBL document CHEMBL4842322, “A naphthalimide-polyamine conjugate preferentially accumulates in hepatic carcinoma metastases as a lysosome-targeted antimetastatic agent” (Eur J Med Chem, 2021).
# Activity calls are given as the source filed them. The rule behind the calls is not given here.
# Experiments:
# MDA-MB-231 [1] = assay: Potency index, ratio of cisplatin IC50 to test compound IC50 for human MDA-MB-231 cells by MTT assay; assay type: functional
# [2] = Toxicity in BALB/c mouse xenografted with human HCC cells assessed as effect on body weight at 1 to 5 mg/kg, iv administered once every 2 days for 14 days; assay type: organism-based; details: in vivo, 336 h, dose 1-5 mg/kg, time 14 day
# A549 [3] = assay: Potency index, ratio of amonafide IC50 to test compound IC50 for human A549 cells by MTT assay; assay type: functional
# [4] = Toxicity in BALB/c mouse xenografted with human HCC cells assessed as effect on liver weight index at 1 to 5 mg/kg, iv administered once daily for 7 days; assay type: organism-based; details: in vivo, 168 h, dose 1-5 mg/kg, time 7 day
# HepG2 [5] = assay: Downregulation of Spermine contents in human HepG2 cells measured after 24 hrs by HPLC analysis; assay type: functional, cell-based
# [6] = Selectivity index, ratio of IC50 for human HL7702 cells to IC50 for human HepG2 cells; assay type: toxicity; details: HL7702 cells and HepG2 cells, read-out: Ratio IC50
# [7] = Drug uptake in mitochondria of human HepG2 cells at 10 uM incubated for 8 hrs by Mito-tarcker dye based laser confocal microscopy; assay type: ADME; details: hepg2, 8 h
# HepG2 [8] = assay: Inhibition of tumor metastasis in human HepG2 cells assessed as upregulation of p62 gene expression level at 5 to 15 uM measured after 24 hrs by qRT-PCR analysis; assay type: functional, cell-based; details: dose 5-15 µM
# [9] = Antimetastatic activity against human HCC cells xenografted in BALB/c mouse assessed as reduction lung metastatic nodules at 5 mg/kg, iv administered once every 2 days for 14 days; assay type: functional; details: 336 h, time 14 day
# HepG2 [10] = assay: Cytotoxicity against human HepG2 cells assessed as reduction in cell viability at 5 to 15 uM incubated for 24 hrs in presence of polyamine transporter inhibitor, Spd by MTT assay; assay type: functional, cell-based; details: dose 5-15 µM
# [11] = Antimetastatic activity against human HCC cells xenografted in BALB/c mouse assessed as reduction lung metastatic nodules at 1 mg/kg, iv administered once every 2 days for 14 days; assay type: functional; details: 336 h, time 14 day
# HepG2 [12] = assay: Inhibition of tumor metastasis in human HepG2 cells assessed as upregulation of p53 gene expression level at 5 to 15 uM measured after 24 hrs by qRT-PCR analysis; assay type: functional, cell-based; details: dose 5-15 µM
# HepG2 [13] = assay: Inhibition of tumor metastasis in human HepG2 cells assessed as upregulation of LC3-I gene expression level at 5 to 15 uM measured after 24 hrs by qRT-PCR analysis; assay type: functional, cell-based; details: dose 5-15 µM
# HepG2 [14] = assay: Downregulation of Spermidine contents in human HepG2 cells measured after 24 hrs by HPLC analysis; assay type: functional, cell-based
# HepG2 [15] = assay: Inhibition of tumor metastasis in human HepG2 cells assessed as downregulation of LC3-II gene expression level at 5 to 15 uM measured after 24 hrs by qRT-PCR analysis; assay type: functional, cell-based; details: dose 5-15 µM
# HepG2 [16] = assay: Cytotoxicity against human HepG2 cells assessed as inhibitory of cell growth measured after 24 hrs by MTT assay; assay type: functional, cell-based; details: HepG2, 24 h
# HepG2 [17] = assay: Potency index, ratio of amonafide IC50 to test compound IC50 for human HepG2 cells by MTT assay; assay type: functional
# [18] = Drug uptake in golgi apparatus of human HepG2 cells at 10 uM incubated for 8 hrs by Golgi-tracker dye based laser confocal microscopy; assay type: ADME, subcellular, Golgi body; details: hepg2, 8 h
# MCF7 = assay: Cytotoxicity against human MCF7 cells assessed as inhibition of cell growth incubated for 48 hrs by MTT assay; assay type: functional, cell-based; details: MCF7, 48 h
# [19] = Toxicity in BALB/c mouse xenografted with human HCC cells assessed as effect on kidney weight index at 1 to 5 mg/kg, iv administered once daily for 7 days; assay type: organism-based; details: in vivo, 168 h, dose 1-5 mg/kg, time 7 day
# [20] = Upregulation of PAO expression in human HepG2 cells at 10 uM measured after 24 hrs relative to control; assay type: functional
# A549 [21] = assay: Cytotoxicity against human A549 cells assessed as inhibition of cell growth incubated for 48 hrs by MTT assay; assay type: functional, cell-based; details: A549, 48 h
# [22] = Antitumor activity against human HCC cells xenografted in BALB/c mouse assessed as inhibition of tumor weight at 5 mg/kg, iv administered once daily for 7 days; assay type: functional; details: 168 h, time 7 day
# [23] = Toxicity in BALB/c mouse xenografted with human HCC cells assessed as effect on lung weight index at 1 to 5 mg/kg, iv administered once daily for 7 days; assay type: organism-based; details: in vivo, 168 h, dose 1-5 mg/kg, time 7 day
# HepG2 [24] = assay: Inhibition of tumor metastasis in human HepG2 cells assessed as upregulation of SSAT protein expression level at 5 to 15 uM measured after 24 hrs by western blot analysis; assay type: functional, cell-based; details: dose 5-15 µM
# MDA-MB-231 [25] = assay: Cytotoxicity against human MDA-MB-231 cells assessed as inhibition of cell growth incubated for 48 hrs by MTT assay; assay type: functional, cell-based; details: MDA-MB-231, 48 h
# HepG2 [26] = assay: Inhibition of tumor metastasis in human HepG2 cells assessed as downregulation of HMGB1 gene expression level measured after 24 hrs by qRT-PCR analysis; assay type: functional, cell-based; details: dose 5-15 µM
# HepG2 [27] = assay: Potency index, ratio of cisplatin IC50 to test compound IC50 for human HepG2 cells by MTT assay; assay type: functional
# Huh-7 [28] = assay: Cytotoxicity against human Huh-7 cells assessed as inhibition of cell growth incubated for 48 hrs by MTT assay; assay type: functional, cell-based; details: Huh-7, 48 h
# L02 = assay: Cytotoxicity against human HL7702 cells assessed as inhibition of cell growth measured after 24 hrs by MTT assay; assay type: cell-based; details: L02, 24 h
# Huh-7 [29] = assay: Downregulation of Spermidine contents in human Huh-7 cells measured after 24 hrs by HPLC analysis; assay type: functional, cell-based
# [30] = Antitumor activity against human HCC cells xenografted in BALB/c mouse assessed as tumor volume administered iv once daily for 7 days measured on day 7 (reference value: 910 mm3); assay type: functional; details: time 7 day
structure (smiles),measurement,setting,value
NCCCCNCCCCNCCCCN1C(=O)c2cccc3cc(NC(=O)CN)cc(c23)C1=O,Ratio IC50,MDA-MB-231 [1],2.11
same,Activity,[2],Non-Toxic
same,Ratio IC50,A549 [3],1.15
same,Activity,[4],Non-Toxic
same,inhibition,HepG2 [5],Active
same,selectivity ratio,[6],4.77
same,Drug uptake,[7],Not Active
same,inhibition,HepG2 [8],Active
same,inhibition in vivo at 5 mg/kg,[9],75%
same,Activity,HepG2 [10],inactive
same,inhibition in vivo at 1 mg/kg,[11],58.5%
same,inhibition,HepG2 [12],Active
same,inhibition,HepG2 [13],Active
same,inhibition,HepG2 [14],Active
same,inhibition,HepG2 [15],Active
same,IC50,HepG2 [16],1.32 µM
same,Ratio IC50,HepG2 [17],7.1
same,Drug uptake,[18],Not Active
same,IC50,MCF7,16.2 µM
same,Activity,[19],Non-Toxic
same,fold change (FC),[20],1.5
same,IC50,A549 [21],20.3 µM
same,inhibition in vivo at 5 mg/kg,[22],76%
same,Activity,[23],Non-Toxic
same,inhibition,HepG2 [24],Active
same,IC50,MDA-MB-231 [25],15.4 µM
same,inhibition,HepG2 [26],Dose-Dependent Effect
same,Ratio IC50,HepG2 [27],6.74
same,IC50,Huh-7 [28],0.98 µM
same,IC50,L02,6.3 µM
same,inhibition,Huh-7 [29],Active
same,Activity,[30],400 mm3
